Test results: patent US10196364B2, “Pyrimidine carboxamides as sodium channel blockers” (Purdue Pharma L.P., priority 2013, dated 2019)

Legend:
[1] = test system: SNL-induced mechanical hyperalgesia; experiment: SNL-induced mechanical hyperalgesia model in rats (paw pressure test, PWT); format: in vivo, rat; conditions: dosed orally at 100 mg/kg (vehicle: 0.5% methyl cellulose) one hour before testing
Method: Each experiment uses rats weighing between 200-260 g at the start of the experiment. The rats are group-housed and have free access to food and water at all times, except prior to oral administration of a test compound when food is removed for 16 h before dosing. A control group acts as a comparison to rats treated with a Compound of the Disclosure. The control group is administered the carrier as used for the test compound. The volume of carrier administered to the control group is the same as the volume of carrier and test compound administered to the test group. In the Chung model, the spinal nerve ligation (SNL) model of neuropathic pain is used to produce mechanical hyperalgesia, thermal hyperalgesia, and tactile allodynia in rats. Surgery is performed under isoflurane/O2 inhalation anesthesia. Following induction of anesthesia a 3 cm incision is made and the left paraspinal muscles are separated from the spinous process at the L4-S2 levels. The L6 transverse process is carefully removed with a pair of small rongeurs to identify visually the L4-L6 spinal nerves. […] The animals are assessed for response to noxious mechanical stimuli by determining PWT, as described below, prior to surgery (baseline), then immediately prior to and 1, 3, and 5 hours after being administered a Compound of the Disclosure or vehicle, for the left rear paw of the animal. The animals can also be assessed for response to noxious thermal stimuli or for tactile allodynia, as described below. […] Sensitivity to noxious mechanical stimuli was measured in animals using the paw pressure test to assess mechanical hyperalgesia. In rats, hind paw withdrawal thresholds (“PWT”), measured in grams, in response to a noxious mechanical stimulus were determined using an analgesymeter (Model 7200, commercially available from Ugo Basile of Italy), as described in Stein (Biochemistry & Behavior 31: 451-455 (1988)). […] PWT was determined once for each rat at each time point. PWT can be measured only in the injured paw, or in both the injured and non-injured paw. […]

hNav1.7 = hNav1.7 (Homo sapiens, UniProt Q15858); experiment: Electrophysiology (EP) whole-cell patch clamp assay in hNav1.7 expressing HEK-293 cells; format: cell-based; conditions: Table 7; affinity for inactivated channels; read-out: Nav1.7 Activity (μM) EP assay Ki
Chain of hNav1.7 (Q15858 1-1977 isoform Q15858-3): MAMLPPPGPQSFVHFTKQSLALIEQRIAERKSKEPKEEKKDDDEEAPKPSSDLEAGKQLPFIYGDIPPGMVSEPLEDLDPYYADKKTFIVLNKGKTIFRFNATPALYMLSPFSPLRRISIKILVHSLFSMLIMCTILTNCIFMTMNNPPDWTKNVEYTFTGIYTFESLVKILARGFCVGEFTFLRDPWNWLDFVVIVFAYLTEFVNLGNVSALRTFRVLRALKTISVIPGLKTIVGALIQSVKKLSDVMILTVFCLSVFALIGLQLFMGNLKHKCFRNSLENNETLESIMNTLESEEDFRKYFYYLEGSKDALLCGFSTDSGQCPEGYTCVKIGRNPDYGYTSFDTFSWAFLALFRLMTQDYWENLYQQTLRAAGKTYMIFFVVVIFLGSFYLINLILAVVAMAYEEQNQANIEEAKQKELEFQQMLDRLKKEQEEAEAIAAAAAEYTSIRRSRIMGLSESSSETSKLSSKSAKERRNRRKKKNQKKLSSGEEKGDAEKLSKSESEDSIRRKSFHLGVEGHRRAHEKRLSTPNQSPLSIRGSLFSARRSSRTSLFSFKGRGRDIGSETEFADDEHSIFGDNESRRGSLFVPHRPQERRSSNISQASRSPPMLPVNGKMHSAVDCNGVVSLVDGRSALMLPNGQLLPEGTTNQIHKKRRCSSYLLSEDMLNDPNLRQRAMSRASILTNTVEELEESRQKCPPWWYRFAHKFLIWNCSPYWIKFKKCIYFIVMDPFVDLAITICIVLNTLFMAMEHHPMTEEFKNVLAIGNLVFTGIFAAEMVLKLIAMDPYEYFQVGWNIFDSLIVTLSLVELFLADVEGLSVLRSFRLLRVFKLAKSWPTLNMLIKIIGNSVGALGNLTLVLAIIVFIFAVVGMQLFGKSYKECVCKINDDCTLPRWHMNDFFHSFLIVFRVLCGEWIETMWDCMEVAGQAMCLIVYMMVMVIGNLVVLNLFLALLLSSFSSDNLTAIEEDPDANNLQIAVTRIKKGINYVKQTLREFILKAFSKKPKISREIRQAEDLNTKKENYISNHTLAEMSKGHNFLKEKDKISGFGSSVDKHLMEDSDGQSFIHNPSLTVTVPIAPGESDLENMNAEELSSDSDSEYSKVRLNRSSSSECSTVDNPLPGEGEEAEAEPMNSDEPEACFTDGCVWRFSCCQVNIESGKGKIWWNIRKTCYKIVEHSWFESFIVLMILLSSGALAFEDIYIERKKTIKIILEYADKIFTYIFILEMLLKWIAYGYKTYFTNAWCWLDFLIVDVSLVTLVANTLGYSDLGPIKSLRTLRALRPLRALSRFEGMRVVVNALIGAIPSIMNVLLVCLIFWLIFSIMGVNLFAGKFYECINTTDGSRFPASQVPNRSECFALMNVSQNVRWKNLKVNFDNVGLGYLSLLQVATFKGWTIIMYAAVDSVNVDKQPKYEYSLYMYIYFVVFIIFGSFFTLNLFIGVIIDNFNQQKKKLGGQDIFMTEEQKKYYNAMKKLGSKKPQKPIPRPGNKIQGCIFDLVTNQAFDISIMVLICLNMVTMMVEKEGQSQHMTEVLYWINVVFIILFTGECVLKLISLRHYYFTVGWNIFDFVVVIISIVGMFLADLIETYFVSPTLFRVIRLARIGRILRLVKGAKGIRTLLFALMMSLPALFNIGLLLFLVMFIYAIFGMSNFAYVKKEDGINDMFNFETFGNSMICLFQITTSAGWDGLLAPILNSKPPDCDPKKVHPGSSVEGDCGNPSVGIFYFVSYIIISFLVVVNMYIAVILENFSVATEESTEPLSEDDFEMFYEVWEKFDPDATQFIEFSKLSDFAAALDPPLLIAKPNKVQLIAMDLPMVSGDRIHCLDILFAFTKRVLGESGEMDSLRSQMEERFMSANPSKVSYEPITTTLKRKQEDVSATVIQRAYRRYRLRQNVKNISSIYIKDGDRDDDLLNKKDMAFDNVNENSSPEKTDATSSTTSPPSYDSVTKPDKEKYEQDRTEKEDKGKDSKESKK
Method: The hNav1.7 expressing HEK-293 cells were plated on 35 mm culture dishes pre-coated with poly-D-lysine in standard DMEM culture media (Mediatech, Inc., Herndon, Va.) and incubated in a 5% CO2 incubator at 37° C. Cultured cells were used approximately 12-48 h after plating.
On the day of experimentation, the 35 mm dish was placed on the stage of an inverted microscope equipped with a perfusion system that continuously perfuses the culture dish with fresh recording media. A gravity driven superfusion system was used to apply test solutions directly to the cell under evaluation. This system consists of an array of glass pipette glass connected to a motorized horizontal translator. The outlet of the shooter was positioned approximately 100 μm from the cell of interest.
Whole cell currents were recorded using the whole-cell patch clamp configuration using an Axopatch 200B amplifier (Axon Instruments, Foster City Calif.), 1322A A/D converter (Axon Instruments) and pClamp software (v. 8; Axon Instruments) and stored on a personal computer. Gigaseals were formed and the whole-cell configuration was established in voltage clamp mode, and membrane currents generated by hNav1.7 were recorded in gap-free mode. Borosilicate glass pipettes have resistance values between 1.5 and 2.0 MΩ when filled with pipette solution and series resistance (<5 MΩ) was compensated 75-80%. Signals were sampled at 50 kHz and low pass filtered at 3 kHz.
After establishing the whole-cell configuration in voltage clamp mode, two voltage protocols were run to establish: 1) the holding potential; and 2) the test potential for each cell.
To determine a membrane potential at which the majority of channels are in the resting state, a standard steady-state inactivation (SSIN) protocol was run using 100 ms prepulses×10 mV depolarizing steps. The holding potential for testing resting block (Vh1) was 20 mV more hyperpolarized than the first potential where inactivation is observed with the inactivation protocol.
From this holding potential a standard I-V protocol was run to determine the potential at which the maximal current (Imax) was elicited. This potential was the test potential (Vt).
The compound testing protocol was a series of 10 ms depolarizations from the Vh1 (determined from the SSIN) to the Vt (determined from the I-V protocol) repeated every 10-15 seconds. […] Washout of the compound was attempted by superfusing with control solution once steady-state block was observed. The fractional response was calculated as follows: FR=I(after drug)/I(control), where I is the peak current amplitude and was used for estimating resting block dissociation constant, Kr: Kr=[drug]*{FR/(1−FR)}, where [drug] is the concentration of a drug.
To assess the block of inactivated channels the holding potential was depolarized such that 20-50% of the current amplitude was reduced when pulsed to the same Vt as above. The magnitude of this depolarization depends upon the initial current amplitude and the rate of current loss due to slow inactivation. This was the second holding potential (Vh2). The current reduction was recorded to determine the fraction of available channels at this potential (h). h=I@Vh2/Imax.
At this membrane voltage a proportion of channels are in the inactivated state, and thus inhibition by a blocker includes interaction with both resting and inactivated channels.
To determine the potency of the test compound on inactivated channels, a series of currents were elicited by 10 ms voltage steps from Vh2 to Vt every 10-15 seconds. After establishing a stable baseline, the low concentration of the compound was applied. Multiple cumulative concentrations may have to be applied to identify a concentration that will block between 40-60% of the current. Washout was attempted to re-establish baseline. Fractional responses were measured with respect to a projected baseline to determine Kapp. Kapp=[drug]*{FR/(1−FR)}, where [drug] is the concentration of a drug. […]

human Nav1.7 = human Nav1.7 (Homo sapiens, UniProt Q15858); experiment: FLIPR membrane potential dye assay (alternative fluorescence assay) in Nav1.7 expressing cells; format: cell-based; conditions: Table 7
Chain of human Nav1.7 (Q15858 1-1977 isoform Q15858-3): as above

Nav1.3 = Nav1.3 (Homo sapiens, UniProt Q9NY46); conditions: read-out: TTX IC50; cited from earlier work
Chain of Nav1.3 (Q9NY46 whole entry, looked up): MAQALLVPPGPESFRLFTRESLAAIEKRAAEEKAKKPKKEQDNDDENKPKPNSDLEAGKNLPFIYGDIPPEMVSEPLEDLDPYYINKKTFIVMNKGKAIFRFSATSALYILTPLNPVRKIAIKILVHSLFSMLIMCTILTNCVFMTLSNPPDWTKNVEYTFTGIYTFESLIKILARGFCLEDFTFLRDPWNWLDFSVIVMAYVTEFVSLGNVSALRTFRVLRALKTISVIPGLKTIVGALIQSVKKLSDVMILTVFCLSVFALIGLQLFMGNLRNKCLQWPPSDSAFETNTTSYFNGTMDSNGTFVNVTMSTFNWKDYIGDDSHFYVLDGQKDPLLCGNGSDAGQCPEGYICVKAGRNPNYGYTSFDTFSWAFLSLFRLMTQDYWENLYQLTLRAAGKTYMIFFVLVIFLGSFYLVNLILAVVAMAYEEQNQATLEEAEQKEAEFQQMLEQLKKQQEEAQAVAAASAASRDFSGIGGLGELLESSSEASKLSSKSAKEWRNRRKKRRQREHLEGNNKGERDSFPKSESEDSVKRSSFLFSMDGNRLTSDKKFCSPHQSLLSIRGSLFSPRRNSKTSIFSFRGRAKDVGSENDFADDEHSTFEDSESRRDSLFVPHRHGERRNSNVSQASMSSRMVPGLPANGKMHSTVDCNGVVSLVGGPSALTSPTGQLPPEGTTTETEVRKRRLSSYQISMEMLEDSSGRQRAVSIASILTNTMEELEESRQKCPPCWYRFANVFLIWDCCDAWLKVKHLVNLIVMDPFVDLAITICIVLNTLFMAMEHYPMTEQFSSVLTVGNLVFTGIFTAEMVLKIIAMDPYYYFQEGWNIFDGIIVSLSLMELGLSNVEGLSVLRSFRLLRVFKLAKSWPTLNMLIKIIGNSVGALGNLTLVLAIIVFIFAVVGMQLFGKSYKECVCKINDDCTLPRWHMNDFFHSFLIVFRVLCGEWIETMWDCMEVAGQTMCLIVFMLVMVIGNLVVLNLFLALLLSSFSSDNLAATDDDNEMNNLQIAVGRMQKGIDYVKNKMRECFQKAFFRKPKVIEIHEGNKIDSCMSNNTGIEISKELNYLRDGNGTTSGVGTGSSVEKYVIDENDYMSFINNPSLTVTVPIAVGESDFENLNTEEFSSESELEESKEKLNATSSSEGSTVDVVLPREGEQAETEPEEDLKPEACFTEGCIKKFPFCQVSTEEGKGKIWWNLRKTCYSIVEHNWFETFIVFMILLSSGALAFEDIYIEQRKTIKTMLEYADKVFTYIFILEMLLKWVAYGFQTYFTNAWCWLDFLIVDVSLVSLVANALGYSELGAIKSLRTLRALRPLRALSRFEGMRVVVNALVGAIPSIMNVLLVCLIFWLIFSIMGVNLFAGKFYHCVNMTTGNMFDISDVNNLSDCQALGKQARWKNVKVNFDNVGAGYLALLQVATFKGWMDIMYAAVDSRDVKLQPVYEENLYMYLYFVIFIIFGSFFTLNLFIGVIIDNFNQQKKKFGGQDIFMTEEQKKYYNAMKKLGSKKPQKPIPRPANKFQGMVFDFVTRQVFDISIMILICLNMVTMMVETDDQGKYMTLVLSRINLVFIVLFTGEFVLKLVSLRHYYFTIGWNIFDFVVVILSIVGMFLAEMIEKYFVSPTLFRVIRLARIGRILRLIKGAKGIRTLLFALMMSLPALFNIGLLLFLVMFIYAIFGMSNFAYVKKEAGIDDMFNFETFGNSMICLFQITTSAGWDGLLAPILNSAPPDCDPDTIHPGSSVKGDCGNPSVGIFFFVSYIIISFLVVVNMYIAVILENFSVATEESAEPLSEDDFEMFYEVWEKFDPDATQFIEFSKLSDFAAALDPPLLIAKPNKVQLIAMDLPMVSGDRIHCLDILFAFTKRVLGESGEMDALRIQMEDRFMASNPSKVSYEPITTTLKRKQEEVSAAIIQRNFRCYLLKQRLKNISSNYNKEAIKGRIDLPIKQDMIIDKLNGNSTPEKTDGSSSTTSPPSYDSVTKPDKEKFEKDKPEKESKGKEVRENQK

Nav1.8 = Nav1.8 (Homo sapiens, UniProt Q9Y5Y9); conditions: read-out: TTX IC50; cited from earlier work

SMILES | SNL-induced mechanical hyperalgesia in rats [1] | Ki (hNav1.7) | IC50 (human Nav1.7) | further results
C[C@H](Oc1cc(C(N)=O)nc(-c2ccc(Oc3ccc(C(F)(F)F)cc3)cc2)n1)C(N)=O [compound 98] | reduced SNL-induced mechanical hyperalgesia |  |  | 
NC(=O)c1cc(N[C@H]2CCNC2=O)nc(-c2ccc(Oc3ccc(C(F)(F)F)cn3)cc2)n1 [compound 99, (S)-6-((2-oxopyrrolidin-3-yl)amino)-2-(4-((5-(trifluoromethyl)pyridin-2-yl)oxy)phenyl)pyrimidine-4-carboxamide] | reduced SNL-induced mechanical hyperalgesia |  |  | 
CCN(CC)Cc1cc(C(F)(F)F)ccc1Oc1ccc(-c2nc(N[C@H](C)C(N)=O)cc(C(N)=O)n2)cc1 [Cpd No. 215, (R)-6-((1-amino-1-oxopropan-2-yl)amino)-2-(4-(2-((diethylamino)methyl)-4-(trifluoromethyl)phenoxy)phenyl)pyrimidine-4-carboxamide] |  | 1.39 µM | 7.35 µM | 
NC1=N[C@H](O)[C@H]2[C@H]3O[C@]4(O)O[C@@H]([C@@H](O)[C@@]2(N1)[C@@H]4O)[C@]3(O)CO [TTX, tetrodotoxin] |  |  |  | IC50 (Nav1.3): 15 nM; IC50 (Nav1.8): 50000 nM
C[C@H](Nc1cc(C(N)=O)nc(-c2ccc(Oc3ccc(OC(F)(F)F)cc3)cc2)n1)C(N)=O [Cpd No. 84, (S)-6-((1-amino-1-oxopropan-2-yl)amino)-2-(4-(4-(trifluoromethoxy)phenoxy)phenyl)pyrimidine-4-carboxamide] | reduced SNL-induced mechanical hyperalgesia |  |  | 
C[C@H](Nc1cc(C(N)=O)nc(-c2ccc(Cc3ccc(C(F)(F)F)cn3)cc2)n1)C(N)=O [Cpd No. 228, (S)-6-((1-amino-1-oxopropan-2-yl)amino)-2-(4-((5-(trifluoro-methyl)pyridin-2-yl)methyl)-phenyl)pyrimidine-4-carboxamide] |  | 1.1 µM | 1.1 µM | 
NC(=O)c1cc(O[C@H]2CCNC2=O)nc(-c2ccc(Oc3ccc(C4CC4)cn3)cc2)n1 [Cpd No. 234, (S)-2-(4-((5-cyclopropylpyridin-2-yl)oxy)phenyl)-6-((2-oxopyrrolidin-3-yl)oxy)-pyrimidine-4-carboxamide] |  | 0.67 µM | 1.2 µM | 
NC(=O)c1cc(O[C@H]2CCNC2=O)nc(-c2ccc(Oc3ccc(C(F)(F)F)cn3)cc2)n1 [Cpd No. 227, (S)-6-((2-oxopyrrolidin-3-yl)oxy)-2-(4-((5-(trifluoro-methyl)pyridin-2-yl)oxy)phenyl)pyrimidine-4-carboxamide] |  | 0.15 µM | 0.55 µM | 
NC(=O)c1cc(O[C@H]2CCNC2=O)nc(-c2ccc(Cc3ccc(C(F)(F)F)cn3)cc2)n1 [Cpd No. 229, (S)-6-((2-oxopyrrolidin-3-yl)oxy)-2-(4-((5-(trifluoromethyl)pyridin-2-yl)methyl)phenyl)pyrimidine-4-carboxamide] |  | 0.62 µM | 0.58 µM | 
NC(=O)c1cc(O[C@H]2CCNC2=O)nc(-c2ccc(Oc3ccc(C(F)(F)F)cc3CN3CCCC3)cc2)n1 [Cpd No. 230, (S)-6-((2-oxopyrrolidin-3-yl)oxy)-2-(4-(2-(pyrrolidin-1-ylmethyl)-4-(trifluoromethyl)-phenoxy)phenyl)pyrimidine-4-carboxamide] |  | 0.74 µM | 1.72 µM | 
